Assay results: patent US20070004634A1 (Novo Nordisk A/S, priority 1998, published 2007)

Assays:
[1] = test system: FDC-P2 cells expressing the IL-3 and human IGF-1R receptors; assay: IGF-1 proliferation assay in FDC-P2 cells, antagonist format
IGF-1R [2] = biological target: T1, IGF-1R (Homo sapiens, UniProt P08069); assay: Phage competition ELISA on IGF-1R; assay type: binding; set-up: included the heterotetrameric (alpha 2-beta 2) extracellular domain of IGF-1R; purchased R&D Systems 391-GR/CF; host or cells: mouse myeloma cell line; conditions: phage RP9, RP6, D8B12, D815
T1 sequence (P08069 31-736 limits assumed): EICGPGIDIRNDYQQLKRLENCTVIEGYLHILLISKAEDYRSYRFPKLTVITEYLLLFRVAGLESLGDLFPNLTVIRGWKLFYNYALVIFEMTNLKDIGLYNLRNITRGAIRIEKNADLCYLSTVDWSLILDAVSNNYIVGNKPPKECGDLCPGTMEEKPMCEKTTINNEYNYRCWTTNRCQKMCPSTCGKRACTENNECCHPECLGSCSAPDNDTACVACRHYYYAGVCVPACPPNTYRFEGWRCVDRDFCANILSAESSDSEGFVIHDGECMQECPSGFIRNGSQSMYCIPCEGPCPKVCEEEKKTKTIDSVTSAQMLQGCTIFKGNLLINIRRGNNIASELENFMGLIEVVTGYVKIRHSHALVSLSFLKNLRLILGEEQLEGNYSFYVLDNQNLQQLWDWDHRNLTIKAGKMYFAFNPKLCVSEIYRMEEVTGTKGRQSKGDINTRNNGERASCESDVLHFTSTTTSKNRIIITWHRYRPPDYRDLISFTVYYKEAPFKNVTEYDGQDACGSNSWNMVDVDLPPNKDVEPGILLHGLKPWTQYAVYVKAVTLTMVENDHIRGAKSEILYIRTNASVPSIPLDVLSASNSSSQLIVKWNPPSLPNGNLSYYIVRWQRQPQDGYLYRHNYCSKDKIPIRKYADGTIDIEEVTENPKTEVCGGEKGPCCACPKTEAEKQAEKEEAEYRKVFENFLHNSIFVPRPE
T1 sequence (P08069 741-935 limits assumed): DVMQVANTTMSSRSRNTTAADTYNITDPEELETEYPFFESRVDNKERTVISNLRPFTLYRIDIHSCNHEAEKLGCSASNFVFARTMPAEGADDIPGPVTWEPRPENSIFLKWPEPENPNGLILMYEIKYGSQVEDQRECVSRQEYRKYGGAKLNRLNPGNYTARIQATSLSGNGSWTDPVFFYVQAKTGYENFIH
Method: Wells were blocked with 4% non-fat milk in PBS for 60 min at room temperature. One hundred microliters of rescued phage were added to each well. […] The labeled antibody was incubated at room temperature for 60 min. After washing, 100 μl of ABTS was added per well and the plates read in a microtiter reader at […]. […] (Site 2). Peptides included RP9 and […]. Phage competition studies were also performed with Site 2-Site 1 dimer peptides containing 6- or 12-amino acid linkers. […] Wells were blocked with 4% non-fat milk in PBS for 60 min at room temperature. One hundred microliters of rescued phage were added to each well. Peptides in varying concentrations were added and the mixture incubated for 2 h at room temperature. […] The labeled antibody was incubated for 60 min at room temperature. After washing, 100 μl of ABTS was added per well and the plates read in a microtiter reader at […]. […] Linker sequences are underlined and shown below.

[3] = test system: FDC-P2 cells expressing the IL-3 and human IGF-1R receptors; assay: IGF-1 proliferation assay in FDC-P2 cells, agonist format; conditions: for agonist activity at IGF-1R, in words / EC50: FDC-P2 cells
[4] = test system: free fat cells (adipocytes); assay: Adipocyte / free fat cell (FFC) assay, 3H glucose incorporation into lipid
[5] = biological target: T2, soluble human insulin receptor-immunoglobulin heavy chain chimera (sIR-Fc) (Homo sapiens, UniProt P06213); assay: TR-FRET competition with biotinylated RP9 (b-RP9) for sIR-Fc; assay type: binding; conditions: for Hill, sIR-Fc, b-RP9, FRET: Hill slope, target sIR-Fc, label b-RP9, TR-FRET
T2 construct: replacing the transmembrane domain and the intracellular domain of IR with constant domains from immunoglobulin Fc or λ subunits; made in house; host or cells: human embryonic kidney 293 cells (Bass et al.)
T2 sequence (P06213 28-758 limits assumed, stated change not applied): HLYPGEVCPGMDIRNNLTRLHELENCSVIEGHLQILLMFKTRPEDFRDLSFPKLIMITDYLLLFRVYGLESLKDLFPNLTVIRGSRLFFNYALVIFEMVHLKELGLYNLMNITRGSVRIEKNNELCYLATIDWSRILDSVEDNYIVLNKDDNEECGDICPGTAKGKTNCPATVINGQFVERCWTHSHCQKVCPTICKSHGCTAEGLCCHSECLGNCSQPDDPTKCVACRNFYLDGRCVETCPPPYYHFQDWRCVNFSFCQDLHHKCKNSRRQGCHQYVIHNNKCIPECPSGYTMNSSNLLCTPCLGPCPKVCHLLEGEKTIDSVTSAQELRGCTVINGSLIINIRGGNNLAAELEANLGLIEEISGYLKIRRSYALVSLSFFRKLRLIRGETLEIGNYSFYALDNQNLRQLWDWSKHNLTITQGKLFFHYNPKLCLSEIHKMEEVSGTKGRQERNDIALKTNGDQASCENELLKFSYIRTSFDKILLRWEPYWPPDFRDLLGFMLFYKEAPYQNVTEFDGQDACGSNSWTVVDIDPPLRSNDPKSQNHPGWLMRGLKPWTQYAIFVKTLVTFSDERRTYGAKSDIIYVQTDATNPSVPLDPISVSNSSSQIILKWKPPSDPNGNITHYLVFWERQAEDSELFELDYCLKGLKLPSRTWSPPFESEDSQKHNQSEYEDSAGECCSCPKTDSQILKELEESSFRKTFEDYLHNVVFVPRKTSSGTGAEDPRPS
T2 sequence (P06213 763-956 limits assumed, stated change not applied): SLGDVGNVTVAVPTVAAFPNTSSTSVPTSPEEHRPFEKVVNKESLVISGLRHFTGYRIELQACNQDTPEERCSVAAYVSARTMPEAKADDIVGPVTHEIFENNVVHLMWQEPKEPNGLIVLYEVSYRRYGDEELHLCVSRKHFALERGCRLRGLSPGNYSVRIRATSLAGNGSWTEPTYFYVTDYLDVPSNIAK

[6] = test system: soluble human insulin mini-receptor (mIR); assay: Fluorescence polarization, competition with FITC-RP9 for mIR; assay type: binding
Method: The FP assays were performed in a 384-well black microplate with a final volume of 30 μl.

[7] = biological target: T2, soluble human insulin receptor-immunoglobulin heavy chain chimera (sIR-Fc); assay: Fluorescence polarization, competition with FITC-RP9 for sIR-Fc; assay type: binding; conditions: for Hill, sIR-Fc, FITC-RP9, FP: Hill slope
[8] = biological target: T2, soluble human insulin receptor-immunoglobulin heavy chain chimera (sIR-Fc); assay: TR-FRET competition with biotinylated S175 (b-S175) for sIR-Fc; assay type: binding; conditions: target sIR-Fc, label b-S175; for Hill, sIR-Fc, b-S175, FRET: Hill slope
IGF-1R [9] = biological target: T1, IGF-1R; assay: TR-FRET competition with biotinylated-20E2 for rhIGF-1R; conditions: TR-FRET (rhIGF-1R, b-20E2) versus FP (sIR-Fc), summary of Table 22
[10] = biological target: T3, human insulin receptor (HIR) (Homo sapiens, UniProt P06213); assay: Insulin receptor binding, competition with 125I-labeled insulin (HIR Kd); conditions: read-out: IC50 (nM), HIR, 125I-insulin, RRA; target HIR; label 125I-insulin; radio-receptor assay
T3 construct: made in house
T3 sequence (P06213 28-758 limits assumed): as the sequence (P06213 28-758 limits assumed, stated change not applied) above
T3 sequence (P06213 763-1382 limits assumed): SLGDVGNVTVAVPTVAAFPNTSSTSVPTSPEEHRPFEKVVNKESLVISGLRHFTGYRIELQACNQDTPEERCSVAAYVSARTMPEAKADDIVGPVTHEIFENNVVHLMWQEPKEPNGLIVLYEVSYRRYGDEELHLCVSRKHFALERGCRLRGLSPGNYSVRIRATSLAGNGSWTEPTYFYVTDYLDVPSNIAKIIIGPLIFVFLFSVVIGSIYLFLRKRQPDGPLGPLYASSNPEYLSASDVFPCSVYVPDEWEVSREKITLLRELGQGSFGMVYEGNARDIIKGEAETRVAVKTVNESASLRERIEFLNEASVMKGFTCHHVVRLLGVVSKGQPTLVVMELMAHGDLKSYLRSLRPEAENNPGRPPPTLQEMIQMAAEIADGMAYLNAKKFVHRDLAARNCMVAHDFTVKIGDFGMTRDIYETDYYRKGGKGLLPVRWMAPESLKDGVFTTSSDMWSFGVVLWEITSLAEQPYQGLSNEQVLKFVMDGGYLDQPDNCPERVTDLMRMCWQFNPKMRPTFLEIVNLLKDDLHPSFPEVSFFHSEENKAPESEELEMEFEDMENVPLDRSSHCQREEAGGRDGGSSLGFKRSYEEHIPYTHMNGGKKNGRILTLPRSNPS

[11] = biological target: T4, soluble HIR ectodomain (sIR) (Homo sapiens, UniProt P06213); assay: Fluorescence polarization, competition with FITC-RP9 for sIR; assay type: binding; conditions: Hill slope, target sIR, label FITC-RP9
T4 construct: soluble HIR ectodomain (sIR); Kristensen et al., 1998
T4 sequence (P06213 28-758 limits assumed): as the sequence (P06213 28-758 limits assumed, stated change not applied) above
T4 sequence (P06213 763-956 limits assumed): as the sequence (P06213 763-956 limits assumed, stated change not applied) above

MCF-7 cells [12] = assay: MCF-7 cell proliferation assay, IGF-1R agonist format; assay type: cell-based, human; conditions: MCF-7 cell proliferation, agonist effect
Description: ; FIGS. 65A-65F), and were used for subsequent experiments.

MiaPaCa cells [13] = conditions: MiaPaCa cell proliferation, antagonist effect
MCF-7 cells [14] = conditions: MCF-7 cell proliferation, antagonist effect
MiaPaCa cells [15] = assay: MiaPaCa cell proliferation assay, IGF-1R agonist format; assay type: cell-based, human; conditions: MiaPaCa cell proliferation, agonist effect
[16] = target sIR-Fc, label FITC-RP9, fluorescence polarization
[17] = FFC assay potency grade, 0, + to ++++++, −

With `CC[C@H](C)[C@@H]1NC(=O)[C@H](CCC(=O)O)NC(=O)[C@@H](NC(=O)[C@H](Cc2c[nH]c3ccccc23)NC(=O)[C@H](CC(C)C)NC(=O)[C@H](Cc2c[nH]c3ccccc23)NC(=O)[C@H](C)NC(=O)[C@H](CCCNC(=N)N)NC(=O)[C@H](CCC(=O)O)NC(=O)[C@H](CCC(N)=O)NC(=O)[C@H](CC(=O)O)NC(=O)[C@H](CC(C)C)NC(=O)[C@@H](N)Cc2c[nH]c3ccccc23)CSSC[C@@H](C(=O)N[C@@H](CC(C)C)C(=O)N[C@@H](CO)C(=O)O)NC(=O)CNC(=O)[C@H](CCCNC(=N)N)NC(=O)CNC(=O)[C@H](CO)NC1=O` [Peptide D815] the “antagonist activity at IGF-1R, in words” value ([1]; FDC-P2 cells) was “no antagonist activity”, the “competition of Site 1 and Site 2 phage on IGF-1R” value (IGF-1R [2]) was “competed both Site 1 and Site 2 phage” and the “FDC-P2 Agonist” value ([3]; FDC-P2 cell proliferation, agonist effect) was “+”. For the same molecule, the “agonist activity at IGF-1R, in words” value [3] was “IGF-1R agonist activity” and the EC50 ([3]; read-out: ED50, agonist activity at IGF-1R) was ~2000 nM.

`CC(C)C[C@H](NC(=O)[C@H](Cc1c[nH]c2ccccc12)NC(=O)[C@H](CCC(=O)O)NC(=O)[C@H](Cc1ccc(O)cc1)NC(=O)CNC(=O)[C@@H]1CCCN1C(=O)[C@H](Cc1c[nH]c2ccccc12)NC(=O)[C@@H](NC(=O)[C@@H](NC(=O)CNC(=O)CN)[C@@H](C)O)C(C)C)C(=O)N[C@@H](CCCNC(=N)N)C(=O)N[C@@H](CC(N)=O)C(=O)N[C@@H](C)C(=O)O` [Peptide E8] was tested, and the FFC ([4]; free fat cell assay class, Table 9) was “−”, the “competition with FITC-RP9 or b-RP9 peptides for binding to sIR-Fc” value [5] was “able to compete” and the “competition with peptide ligands such as FITC-RP9 for binding to mIR” value [6] was “did not compete”. For the same molecule, the IC50 ([6]; target mIR, label FITC-RP9, fluorescence polarization, read-out: IC50 (nM), mIR, FITC-RP9, FP) was > 100000 nM, the “Hill, sIR-Fc, FITC-RP9, FP” value [7, 16] was −0.49 and the IC50 ([7]; target sIR-Fc, label FITC-RP9, fluorescence polarization, read-out: IC50 (nM), sIR-Fc, FITC-RP9, FP) was 207 nM. For the same molecule, the IC50 ([7]; vs. FITC-RP9, read-out: FP sIR-Fc IC50) was 206 nM, the “Hill, sIR-Fc, b-S175, FRET” value [8] was −0.74 and the IC50 [8] was 755 nM. The “binding to IGF-1R compared with IR, in words” value (IGF-1R [9]) was “comparable binding to IGF-1R and IR” and the IC50 [10] was 2200 nM.

In the case of `CC(C)C[C@H](NC(=O)[C@H](CCC(=O)O)NC(=O)[C@H](C)NC(=O)[C@@H](NC(=O)[C@H](Cc1ccccc1)NC(=O)[C@H](Cc1c[nH]c2ccccc12)NC(=O)[C@H](CC(=O)O)NC(=O)[C@H](Cc1ccc(O)cc1)NC(=O)[C@H](Cc1ccccc1)NC(=O)[C@H](CC(N)=O)NC(=O)[C@H](C)NC(=O)[C@H](CC(N)=O)NC(=O)[C@H](CCCNC(=N)N)NC(=O)[C@H](CCC(N)=O)NC(=O)[C@H](CC(C)C)NC(=O)[C@H](Cc1c[nH]c2ccccc12)NC(=O)[C@H](CC(=O)O)NC(=O)[C@@H](NC(=O)[C@H](CCCNC(=N)N)NC(=O)CN)C(C)C)C(C)C)C(=O)NCC(=O)O` [Peptide S175], the FFC [4, 17] is reported as “+++”, the “Hill, sIR-Fc, b-RP9, FRET” value [5] is reported as −0.74 and the “Hill, sIR-Fc, FITC-RP9, FP” value [7, 16] is reported as −0.56. The “Hill, sIR-Fc, b-S175, FRET” value [8] was −0.58, the “Hill, sIR, FITC-RP9, FP” value [11] was −0.36 and the “agonist activity at IGF-1R, in words” value [3] was “IGF-1R agonist activity”. The EC50 ([3]; read-out: Cellular EC50, stimulation of proliferation) was 10000 nM and the “binding to IGF-1R compared with IR, in words” value (IGF-1R [9]) was “high binding ratios for IGF-1R over IR”.

GSLDESFYDWFERQLGKK [Peptide S371] was tested, and the FFC [4, 17] was “+”, the FFC ([4]; Table 5, free fat cell assay) was “+” and the FFC ([4]; Table 6, free fat cell assay) was “+”. The “Hill, sIR-Fc, b-RP9, FRET” value [5] was −0.69, the “MCF-7 Agonist” value (MCF-7 cells [12]) was “No” and the “FDC-P2 Antagonist” value ([1]; FDC-P2 cell proliferation, antagonist effect) was “+”. The EC50 ([1]; read-out: ED50, antagonist activity at IGF-1R, FDC-P2 cells, 10 ng/ml IGF-1 test medium) was ~7000 nM, the “potency / affinity at IR, in words” value ([7]; FP with FITC-RP9, summary of Table 22) was “slightly less potent” and the “Hill, sIR-Fc, FITC-RP9, FP” value [7, 16] was −0.41. For the same molecule, the “competition of Site 1 and Site 2 phage on IGF-1R” value (IGF-1R [2]) was “competed both Site 1 and Site 2 phage”, the “Hill, sIR-Fc, b-S175, FRET” value [8] was −0.45 and the “Hill, sIR, FITC-RP9, FP” value [11] was −0.29. The “MiaPaCa Antagonist” value (MiaPaCa cells [13]) was “No”, the “agonist activity at IGF-1R, in words” value [3] was “no agonist activity” and the Class ([3]; IGF-1R agonist or antagonist) was “N”. The “binding to IGF-1R compared with IR, in words” value (IGF-1R [9]) was “lower binding ratios for IGF-1R over IR”, the “MCF-7 Antagonist” value (MCF-7 cells [14]) was “No” and the “MiaPaCa Agonist” value (MiaPaCa cells [15]) was “No”.
